Read-outs that look alike come from different tables or passages of the source.

Common to all, as to format: in vivo
The subject of experiment [1] is sedge, umbrella (small-flower umbrella sedge, Cyperus difformis). Description: Test B flooded paddy test. Conditions: Cyperus difformis, 250 g ai/ha, Flood, read-out: Sedge, Umbrella plant response rating. The method, boiled down:
(§1)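 Greenhouse paddy pots with 2-leaf stage plants received compound by direct addition to floodwater 3 cm deep, kept at that level. Scored visually at 13–15 d versus controls (0 no effect; 100 complete control).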

Experiment [2] relates to barnyardgrass (Echinochloa crus-galli). In words: Test B flooded paddy test. The conditions noted are these: Echinochloa crus-galli, 250 g ai/ha, Flood, read-out: Barnyardgrass plant response rating. The method, boiled down: as §1
The subject of experiment [3] is ducksalad (Heteranthera limosa). Description: Test B flooded paddy test. The conditions noted are these: Heteranthera limosa, 250 g ai/ha, Flood, read-out: Ducksalad plant response rating. The method, boiled down: as §1
The test system of experiment [4] is rice (Oryra sativa). Description: Test B flooded paddy test. Conditions: Oryza sativa, 250 g ai/ha, Flood, read-out: Rice plant response rating. A digest of the protocol: as §1
Experiment [5] relates to Kochia (Kochia scoparia). In words: Test A postemergence. The conditions noted are these: Bassia scoparia, post-emergence, 240 h; for pest or weed control at 125 g/ha: 125 g ai/ha; for pest or weed control at 500 g/ha: 500 g ai/ha. A digest of the protocol: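 Compounds were formulated in a non-phytotoxic solvent mixture with surfactant and applied as a preemergence directed soil spray after seeding, or sprayed postemergence over plants 2 to 10 cm tall at the one- to two-leaf stage. Evaluation after about 10 d compared treated with untreated controls, using a scale from 0 (no effect) to 100 (complete control).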

[6] abbreviates: 0 to 100 scale where 0 is no effect and 100 is complete control.
Where [7] appears, read: postemergence, visual injury on 0 to 100 scale (0 no effect, 100 complete control), approx. 10 d, read-out: Kochia plant response rating.
[8] abbreviates: postemergence, 0 to 100 scale, 0 is no effect, 100 is complete control, read-out: Kochia plant response rating.
The mark [9] stands for this setting: scale of 0 to 100 where 0 is no effect and 100 is complete control.
The mark [10] stands for this setting: postemergence, visual injury rating after approximately 10 d, read-out: Kochia plant response rating (0 to 100 scale, 0 no effect, 100 complete control).
Setting [11] is: Postemergence, visual injury after approximately 10 d, 0 to 100 scale where 0 is no effect and 100 is complete control, read-out: Plant response rating, Kochia.
[12] abbreviates: postemergence, visual injury vs untreated controls after approx. 10 d, 0 = no effect, 100 = complete control, read-out: Kochia plant response rating (0 to 100 scale).

As to `CN1C[C@H](c2csc(C(F)F)c2)[C@@H](C(=O)Nc2cccc(F)c2F)C1=O` [Compound 1122], the pest or weed control at 250 g/ha came out at 30% in experiment [1] (setting [6]), 70% in experiment [2] (setting [6]), 100% in experiment [3] (setting [6]) and 25% in experiment [4] (setting [6]). In addition, the pest or weed control at 125 g/ha in experiment [5] (setting [7]) was found to be 60%. Moreover, the pest or weed control at 500 g/ha in experiment [5] (setting [8]) is 60%.

Turning to `CN1C[C@H](c2cccc(COC(F)F)c2)[C@@H](C(=O)Nc2ccccc2F)C1=O` [Compound 875], the pest or weed control at 250 g/ha in experiment [1] (setting [9]) was found to be 0%; in experiment [2] (setting [9]), 70%; in experiment [3] (setting [9]) it was 100%; in experiment [4] (setting [9]) it was 0%. The pest or weed control at 125 g/ha in experiment [5] (setting [10]) was 40%.

In the case of `O=C1NC[C@H](c2cc(C(F)F)cs2)[C@H]1C(=O)Nc1cccc(F)c1F` [Compound 1117], the pest or weed control at 250 g/ha turned out to be 0% in experiment [1] (setting [6]), 60% in experiment [2] (setting [6]), 100% in experiment [3] (setting [6]) and 20% in experiment [4] (setting [6]). Also, the pest or weed control at 125 g/ha in experiment [5] (setting [7]) amounted to 20%. Moreover, in experiment [5] (setting [8]), the pest or weed control at 500 g/ha is 40%.

For the compound `CCOc1ccc([C@H]2CN(C)C(=O)[C@@H]2C(=O)Nc2ccc(F)cc2F)cc1` [Compound 905], the pest or weed control at 250 g/ha in experiment [1] (setting [9]), in experiment [2] (setting [9]), in experiment [3] (setting [9]) and in experiment [4] (setting [9]) was 0% in each case. Besides, the pest or weed control at 125 g/ha in experiment [5] (setting [10]) turned out to be 0%.

In the case of `COc1c(F)ccc([C@H]2CNC(=O)[C@@H]2C(=O)Nc2ccc(F)c(F)c2F)c1Cl` [Compound 890], the pest or weed control at 250 g/ha is 0% in experiment [1] (setting [9]), 60% in experiment [2] (setting [9]), 90% in experiment [3] (setting [9]) and 0% in experiment [4] (setting [9]). Further, in experiment [5] (setting [10]), the pest or weed control at 125 g/ha was determined as 60%.

Regarding `CN1CC[C@H](c2cccc(Cl)c2)[C@@H](C(=O)Nc2cccc(F)c2F)C1=O` [Compound 921], the pest or weed control at 250 g/ha worked out at 0% in experiment [1] (setting [9]), 85% in experiment [2] (setting [9]), 90% in experiment [3] (setting [9]) and 20% in experiment [4] (setting [9]). In addition, the pest or weed control at 125 g/ha in experiment [5] (setting [11]) was determined as 0%.

For `COc1ccc([C@H]2CN(C)C(=O)[C@@H]2C(=O)Nc2ccccc2SC)cc1OC` [Compound 854], the pest or weed control at 250 g/ha in experiment [1] (setting [9]), in experiment [2] (setting [9]), in experiment [3] (setting [9]) and in experiment [4] (setting [9]) was 0% each time. In experiment [5] (setting [10]), the pest or weed control at 125 g/ha worked out at 0%.

Consider `CON1CC[C@H](c2ccc(F)cc2)[C@@H](C(=O)Nc2cccc(F)c2F)C1=O` [Compound 918], for which the pest or weed control at 250 g/ha in experiment [1] (setting [9]) came out at 0%; in experiment [2] (setting [9]), 0%; in experiment [3] (setting [9]), 30%; in experiment [4] (setting [9]) it was 15%. Besides, in experiment [5] (setting [11]), the pest or weed control at 125 g/ha was found to be 0%.

For `Cc1cc([C@H]2CN(C)C(=O)[C@@H]2C(=O)Nc2cccc(F)c2F)ccc1Br` [Compound 1099], the pest or weed control at 250 g/ha in experiment [1] (setting [6]) worked out at 0%; in experiment [2] (setting [6]), 0%; in experiment [3] (setting [6]), 100%; in experiment [4] (setting [6]) it was 0%. The pest or weed control at 125 g/ha in experiment [5] (setting [7]) worked out at 30%. The pest or weed control at 500 g/ha in experiment [5] (setting [8]) was determined as 60%.

`N#Cc1cccc(NC(=O)[C@H]2C(=O)NC[C@@H]2c2cccc(C(F)(F)F)c2)c1F` [Compound 829]: the pest or weed control at 250 g/ha in experiment [1] (setting [9]) is 0%; in experiment [2] (setting [9]), 55%; in experiment [3] (setting [9]), 70%; in experiment [4] (setting [9]), 0%. Besides, in experiment [5] (setting [10]), the pest or weed control at 125 g/ha came out at 0%.

Take `CN1C[C@H](c2ccc(C#N)cc2)[C@@H](C(=O)Nc2ccccc2F)C1=O` [Compound 1207]: the pest or weed control at 250 g/ha in experiment [1] (setting [6]) was found to be 0%; in experiment [2] (setting [6]), 0%; in experiment [3] (setting [6]) it was 100%; in experiment [4] (setting [6]), 0%. Besides, the pest or weed control at 125 g/ha in experiment [5] (setting [12]) was determined as 20%. Moreover, in experiment [5] (setting [8]), the pest or weed control at 500 g/ha is 60%.

In the case of `COc1ccccc1NC(=O)[C@H]1C(=O)N(C)C[C@@H]1c1ccc(C(F)(F)F)cc1` [Compound 843], the pest or weed control at 250 g/ha in experiment [1] (setting [9]) stood at 0%; in experiment [2] (setting [9]) it was 0%; in experiment [3] (setting [9]), 20%; in experiment [4] (setting [9]), 0%. In addition, the pest or weed control at 125 g/ha in experiment [5] (setting [10]) came out at 40%.

For the compound `CSc1ccccc1NC(=O)[C@H]1C(=O)N(C)C[C@@H]1c1cc(F)c(F)c(F)c1` [Compound 866], the pest or weed control at 250 g/ha in experiment [1] (setting [9]) was 35%; in experiment [2] (setting [9]), 35%; in experiment [3] (setting [9]), 90%; in experiment [4] (setting [9]), 35%. Moreover, in experiment [5] (setting [10]), the pest or weed control at 125 g/ha was 20%.

In the case of `CN1C[C@H](c2cc(F)c(F)c(F)c2)[C@@H](C(=O)Nc2ccccc2F)C1=O` [Compound 878], the pest or weed control at 250 g/ha came out at 0% in experiment [1] (setting [9]), 85% in experiment [2] (setting [9]), 100% in experiment [3] (setting [9]) and 0% in experiment [4] (setting [9]). In addition, in experiment [5] (setting [10]), the pest or weed control at 125 g/ha was 20%.

As for `CSc1ccccc1NC(=O)[C@H]1C(=O)N(C)C[C@@H]1c1ccc(C(F)(F)F)nc1` [Compound 1198], the pest or weed control at 250 g/ha in experiment [1] (setting [6]) was determined as 30%; in experiment [2] (setting [6]) it was 20%; in experiment [3] (setting [6]), 40%; in experiment [4] (setting [6]), 0%. The pest or weed control at 125 g/ha in experiment [5] (setting [12]) is 60%. For the same compound, the pest or weed control at 500 g/ha in experiment [5] (setting [8]) is 60%.

`COc1cc(C(F)(F)F)ccc1[C@H]1CN(C)C(=O)[C@@H]1C(=O)Nc1ccccc1SC` [Compound 860]: the pest or weed control at 250 g/ha was found to be 0% in experiment [1] (setting [9]), 0% in experiment [2] (setting [9]), 90% in experiment [3] (setting [9]) and 0% in experiment [4] (setting [9]). Further, in experiment [5] (setting [10]), the pest or weed control at 125 g/ha was 0%.

Regarding `Cc1c(F)cccc1NC(=O)[C@H]1C(=O)N(C)C[C@@H]1c1cccc(COC(F)F)c1` [Compound 874], the pest or weed control at 250 g/ha came to 0% in experiment [1] (setting [9]), 65% in experiment [2] (setting [9]), 100% in experiment [3] (setting [9]) and 0% in experiment [4] (setting [9]). The pest or weed control at 125 g/ha in experiment [5] (setting [10]) amounted to 20%.

In the case of `CN1CC[C@H](c2cccc(C(F)(F)F)c2)[C@@H](C(=O)Nc2ccccc2S(C)(=O)=O)C1=O` [Compound 920], the pest or weed control at 250 g/ha in experiment [1] (setting [9]), in experiment [2] (setting [9]), in experiment [3] (setting [9]) and in experiment [4] (setting [9]) was 0% throughout. The pest or weed control at 125 g/ha in experiment [5] (setting [11]) worked out at 0%.

Consider `Cc1cc(C)cc([C@H]2CNC(=O)[C@@H]2C(=O)Nc2cccc(F)c2F)c1` [Compound 889], for which the pest or weed control at 250 g/ha stood at 0% in experiment [1] (setting [9]), 60% in experiment [2] (setting [9]), 75% in experiment [3] (setting [9]) and 0% in experiment [4] (setting [9]). In addition, in experiment [5] (setting [10]), the pest or weed control at 125 g/ha is 0%.

On to `CCc1cc(CC)cc([C@H]2CNC(=O)[C@@H]2C(=O)Nc2ccccc2F)c1` [Compound 1138], for which the pest or weed control at 250 g/ha in experiment [1] (setting [6]) was 0%; in experiment [2] (setting [6]) it was 60%; in experiment [3] (setting [6]), 75%; in experiment [4] (setting [6]) it was 0%. Further, the pest or weed control at 125 g/ha in experiment [5] (setting [7]) is 0%. The pest or weed control at 500 g/ha in experiment [5] (setting [8]) was 0%.

Regarding `CSc1ccccc1NC(=O)[C@H]1C(=O)NC[C@@H]1c1ccc(C)c(C)c1` [Compound 1036], in experiment [5] (setting [7]), the pest or weed control at 125 g/ha is 0%. Also, in experiment [5] (postemergence, visual injury, 0 to 100 scale (0 no effect, 100 complete control), approx. 10 d, read-out: Plant response rating, Kochia), the pest or weed control at 500 g/ha stood at 0%.

For the origin of these results see patent US12077503B2, “Substituted cyclic amides and their use as herbicides” (FMC CORPORATION, priority 2015, dated 2024).
